Source: ChEMBL document CHEMBL5500375, “Design, synthesis, and evaluation of N1,N3-dialkyldioxonaphthoimidazoliums as antibacterial agents against methicillin-resistant Staphylococcus aureus” (Eur J Med Chem, 2024)
Active and inactive are the calls of the source. The rule behind the calls is not given here.

Key:
[1] = Cytotoxicity against human HDFa cells assessed as cell survival measured after 72 hrs incubation by Cell Titer-Glo luminescent assay; assay type: toxicity, cell-based
[2] = Metabolic stability in human liver microsomes assessed as intrinsic clearance at 2 uM preincubated for 5 mins followed by NADPH addition and measured for 35 mins by LC/MS analysis; assay type: ADME, Microsome; settings: read-out: CLH
Staphylococcus aureus [3] = experiment: In vivo antibacterial activity against methicillin-resistant Staphylococcus aureus SA3 infected in dorsal thorax of Drosophila melanogaster strain Oregon R assessed as median survival time of Drosophila at 0.04 to 0.2 mg/ml measured upto 72 hrs; assay type: functional; settings: dose 0.04-0.2 mg/ml
Bacillus subtilis [4] = experiment: Antibacterial agents against Bacillus subtilis PS380 assessed as absence of growth measured after 18 hrs by micro-dilution method; assay type: functional
Staphylococcus aureus [5] = experiment: Reduction in virulent activity of methicillin-resistant Staphylococcus aureus SA3 infected in dorsal thorax of Drosophila melanogaster strain Oregon R at 0.2 mg/ml measured upto 72 hrs; assay type: functional, organism-based
Pseudomonas aeruginosa [6] = experiment: Antibacterial agents against gram negative Pseudomonas aeruginosa PA14 assessed as reduction in colony forming unit at 0.78 ug/ml measured upto 10 hrs in presence of 0.2 ug/ml Polymyxin B by LB agar medium method; assay type: functional; settings: dose 0.78 µg/ml
Staphylococcus aureus [7] = experiment: Antibacterial agents against c5-resistant mutant of methicillin-resistant Staphylococcus aureus SA3 m1 assessed as absence of growth measured after 18 hrs by micro-dilution method; assay type: functional
Staphylococcus aureus [8] = experiment: Anti-biofilim activity against methicillin-resistant Staphylococcus aureus USA300 assessed decrease in biofilm growth at 1 to 10 times of MIC concentration measured after 12 to 24 hrs incubation; assay type: functional, organism-based; settings: time 12-24 hrs
Staphylococcus aureus [9] = experiment: Antibacterial activity against methicillin-resistant Staphylococcus aureus SA3 assessed as fold increase in MIC measured after 16 passages to MIC during first passage; assay type: functional
[10] = Metabolic stability in human liver microsomes assessed as half life at 2 uM preincubated for 5 mins followed by NADPH addition and measured for 35 mins by LC/MS analysis; assay type: ADME, Microsome; settings: preincubation 5 min
Bacillus subtilis [11] = experiment: Antibacterial agents against Bacillus subtilis PS380 assessed as absence of growth at 0.19 ug/ml measured after overnight incubation under anaerobic condition in presence of N-acetylcysteine by micro-dilution method; assay type: functional, organism-based; settings: dose 0.19 µg/ml
Staphylococcus aureus [12] = experiment: Antibacterial agents against methicillin-sensitive Staphylococcus aureus SA1 assessed as absence of growth measured after 18 hrs by micro-dilution method; assay type: functional
Staphylococcus aureus [13] = experiment: Anti-biofilim activity against methicillin-sensitive Staphylococcus aureus Newman assessed decrease in biofilm growth at 1 to 10 times of MIC concentration measured after 12 to 24 hrs incubation; assay type: functional, organism-based; settings: time 12-24 hrs
Staphylococcus aureus [14] = experiment: In vivo antibacterial activity against methicillin-resistant Staphylococcus aureus SA3 infected in dorsal thorax of Drosophila melanogaster strain Oregon R assessed as survival time of Drosophila at 0.04 mg/ml measured upto 72 hrs relative to control; assay type: functional, organism-based
Pseudomonas aeruginosa [15] = experiment: Antibacterial agents against gram negative Pseudomonas aeruginosa PA14 assessed as reduction in colony forming unit at 0.78 ug/ml measured upto 10 hrs by LB agar medium method; assay type: functional, organism-based; settings: dose 0.78 µg/ml
Staphylococcus aureus [16] = experiment: Antibacterial agents against c5-resistant mutant of methicillin-resistant Staphylococcus aureus SA3 m2 assessed as absence of growth at 0.19 ug/ml measured after overnight incubation under anaerobic condition in presence of N-acetylcysteine by micro-dilution method; assay type: functional, organism-based; settings: dose 0.19 µg/ml
[17] = In vivo toxicity in Drosophila melanogaster strain Oregon R assessed as survival rate at 0.1 to 1 mg/ml measured upto 72 hrs relative to control; assay type: organism-based; settings: Oregon R, at 0.1 to 1 mg/mL, dose 0.1-1 mg/ml
Staphylococcus aureus [18] = experiment: Anti-biofilim activity against methicillin-sensitive Staphylococcus aureus SA1 assessed decrease in biofilm growth at 1 to 10 times of MIC concentration measured after 12 to 24 hrs incubation; assay type: functional, organism-based; settings: time 12-24 hrs
Staphylococcus aureus [19] = experiment: Antibacterial agents against methicillin-resistant Staphylococcus aureus SA3 assessed as absence of growth at 0.19 ug/ml measured after overnight incubation under anaerobic condition in presence of N-acetylcysteine by micro-dilution method; assay type: functional, organism-based; settings: dose 0.19 µg/ml
Staphylococcus aureus [20] = experiment: Antibacterial activity against c5-resistant mutant of methicillin-resistant Staphylococcus aureus SA3 m6 assessed as resistance by measuring antibacterial activity after 20 passages at 200 ug/ml by emergence of bacterial resistance assay; assay type: functional, organism-based; settings: dose 200.0 µg/ml
Staphylococcus aureus [21] = experiment: Antibacterial agents against c5-resistant mutant of methicillin-resistant Staphylococcus aureus SA3 m4 assessed as absence of growth measured after 18 hrs by micro-dilution method; assay type: functional
Pseudomonas aeruginosa [22] = experiment: Antibacterial agents against gram negative Pseudomonas aeruginosa PA14 assessed as reduction in colony forming unit at 0.78 ug/ml in presence of 0.1 to 0.2 ug/ml Polymyxin B by LB agar medium method; assay type: functional, organism-based; settings: dose 0.78 µg/ml, time 0-10 hrs, TDE = time-dependent effect
Staphylococcus aureus [23] = experiment: Induction of ROS generation in methicillin-resistant Staphylococcus aureus SA3 using hydroxyphenyl fluorescein at 0.19 ug/ml under anaerobic condition; assay type: functional, organism-based; settings: dose 0.19 µg/ml
[24] = Therapeutic index, ratio of IC50 for HEK293 cells to MIC for […] activity against methicillin-resistant Staphylococcus aureus SA3; assay type: toxicity; settings: human, read-out: TI
Staphylococcus aureus [25] = experiment: Antibacterial agents against c5-resistant mutant of methicillin-resistant Staphylococcus aureus SA3 m4 assessed as absence of growth at 0.19 ug/ml measured after overnight incubation under anaerobic condition in presence of N-acetylcysteine by micro-dilution method; assay type: functional, organism-based; settings: dose 0.19 µg/ml
Staphylococcus aureus [26] = experiment: Induction of ROS generation in methicillin-resistant Staphylococcus aureus USA300 using hydroxyphenyl fluorescein at 0.09 ug/ml under anaerobic condition; assay type: functional, organism-based; settings: dose 0.09 µg/ml, TDE = time-dependent effect
Staphylococcus aureus [27] = experiment: Antibacterial agents against methicillin-sensitive Staphylococcus aureus Newman assessed as absence of growth at 0.19 ug/ml measured after overnight incubation under anaerobic condition in presence of N-acetylcysteine by micro-dilution method; assay type: functional, organism-based; settings: dose 0.19 µg/ml
Staphylococcus aureus [28] = experiment: Antibacterial agents against c5-resistant mutant of methicillin-resistant Staphylococcus aureus SA3 m1 assessed as absence of growth at 0.19 ug/ml measured after overnight incubation under anaerobic condition in presence of N-acetylcysteine by micro-dilution method; assay type: functional, organism-based; settings: dose 0.19 µg/ml
Staphylococcus aureus [29] = experiment: Antibacterial agents against methicillin-sensitive Staphylococcus aureus SA1 assessed as absence of growth at 0.19 ug/ml measured after overnight incubation under anaerobic condition in presence of N-acetylcysteine by micro-dilution method; assay type: functional, organism-based; settings: dose 0.19 µg/ml
Staphylococcus aureus [30] = experiment: Antibacterial agents against c5-resistant mutant of methicillin-resistant Staphylococcus aureus SA3 m6 assessed as absence of growth at 0.19 ug/ml measured after overnight incubation under anaerobic condition in presence of N-acetylcysteine by micro-dilution method; assay type: functional, organism-based; settings: dose 0.19 µg/ml
Staphylococcus aureus [31] = experiment: Antibacterial activity against c5-resistant mutant of methicillin-resistant Staphylococcus aureus SA3 m6 assessed as fold increase in MIC measured after 12 passages to MIC during first passage; assay type: functional
Staphylococcus aureus [32] = experiment: Antibacterial agents against methicillin-resistant Staphylococcus aureus SA3 assessed as absence of growth measured after 18 hrs by micro-dilution method; assay type: functional
Staphylococcus aureus [33] = experiment: Bactericidal activity against methicillin-resistant Staphylococcus aureus SA3 assessed as as reduction in colony forming unit at 0.1 to 0.4 ug/ml measured after 2 to 4 hrs by time-kill assay; assay type: functional, organism-based; settings: dose 0.1-0.4 µg/ml, time 2-4 hrs

CCCCCCCCn1c2c([n+](Cc3ccccc3)c1C)C(=O)c1ccccc1C2=O.[Br-]
IC50 at 72 h [1]: 1.06 µM | CLint scaled at 2 µM [2]: 39 mL/min/kg | Time (Staphylococcus aureus [3]): 56 h | MIC (Bacillus subtilis [4]): 0.39 µg/mL | Activity (Staphylococcus aureus [5]): inactive | Activity (Pseudomonas aeruginosa [6]): >4 log10CFU/ml | MIC (Staphylococcus aureus [7]): 6.25 µg/mL | Activity (Staphylococcus aureus [8]): Active | fold change (FC) (Staphylococcus aureus [9]): 4 | half-life at 2 µM [10]: 32 min | Activity (Bacillus subtilis [11]): Active | MIC (Staphylococcus aureus [12]): 0.19 µg/mL | Activity (Staphylococcus aureus [13]): Active | Activity (Staphylococcus aureus [14]): Active | Activity (Pseudomonas aeruginosa [15]): inactive | Activity (Staphylococcus aureus [16]): inactive | survival at 72 h [17]: 75% | Activity (Staphylococcus aureus [18]): Active | Activity (Staphylococcus aureus [19]): inactive | Activity (Staphylococcus aureus [20]): inactive | MIC (Staphylococcus aureus [21]): 6.25 µg/mL | Activity (Pseudomonas aeruginosa [22]): Tde | Activity (Staphylococcus aureus [23]): Active | selectivity ratio [24]: 0.8 | Activity (Staphylococcus aureus [25]): inactive | Activity (Staphylococcus aureus [26]): Tde | Activity (Staphylococcus aureus [27]): inactive | Activity (Staphylococcus aureus [28]): inactive | Activity (Staphylococcus aureus [29]): inactive | Activity (Staphylococcus aureus [30]): inactive | fold change (FC) (Staphylococcus aureus [31]): 2 | MIC (Staphylococcus aureus [32]): 0.39 µg/mL | Activity (Staphylococcus aureus [33]): inactive
